Among the data in ChEMBL document CHEMBL5725267, “Enhancer of zeste homolog 2 inhibitors” (2016) are IC50 values, retold here.

The experiment is described as follows: Scintillation Proximity Assay (SPA): Protocol 2: Compounds contained herein were evaluated for their ability to inhibit the methyltransferase activity of EZH2 within the PRC2 complex. Human PRC2 complex was prepared by co-expressing each of the 5 member proteins (FLAG-EZH2, EED, SUZ12, RbAp48, AEBP2) in Sf9 cells followed by co-purification. Enzyme activity was measured in a scintillation proximity assay (SPA) where a tritiated methyl group is transferred from 3H-SAM to a lysine residue on a biotinylated, unmethylated peptide substrate derived from histone H3. The peptides were captured on streptavidin-coated SPA beads and the resulting signal was read on a ViewLux plate reader.Part A. Compound Preparation 4. Prepare 10 mM stock of compounds from solid in 100% DMSO. 5. Set up an 11-point serial dilution (1:4 dilution, top concentration 10 mM) in 100% DMSO for each test compound in a 384 well plate leaving columns 6 and 18 for DMSO controls. 6. Dispense 10 nL of compound from the dilution plate into reaction plates (Corning, 384-well polystyrene NBS, Cat#3673). Percent inhibition was calculated relative to the DMSO control for each compound concentration and the resulting values were fit using standard IC50 fitting parameters within the ABASE data fitting software package. The class given is biochemical.

With `C/C=C(\CCCN1CCC(N(C)C)CC1)c1scc(C(=O)NCc2c(C)cc(C)[nH]c2=O)c1C`, the IC50 is 200 nM.
Then `C/C=C(/c1scc(C(=O)NCc2c(C)cc(C)[nH]c2=O)c1C)[C@H]1CC[C@H](NC(=O)OC(C)(C)C)CC1`, with 100 nM.
The same measure for `C/C=C(\CCCN1CCN(C)CC1)c1scc(C(=O)NCc2c(C)cc(C)[nH]c2=O)c1C`: 251 nM; for `C/C=C(\CCN1CCOCC1)c1scc(C(=O)NCc2c(C)cc(C)[nH]c2=O)c1C`: 1000 nM.

Broadly, the IC50 is the point on the concentration scale where inhibition reaches its midpoint.
